Like-named read-outs stand apart in the source and are kept apart here.
Legend:
cyclodextrinase [1] = target: T1, cyclodextrinase (Lysinibacillus sphaericus, UniProt Q08341); experiment: Influence of metal ions on the activity of the present enzyme; format: biochemical, Bacillus sphaericus; conditions: for Residual activity: ions added, final conc. 1 mM, none = 100
T1 construct: is cultured in a medium to yield and accumulate said cyclodextrinase, and this enzyme is collected from the culture; made in house; host or cells: Bacillus sphaericus E-244 (FERM BP-2458), the natural wild-type producer strain; not recombinant
T1 sequence (Q08341 1-591): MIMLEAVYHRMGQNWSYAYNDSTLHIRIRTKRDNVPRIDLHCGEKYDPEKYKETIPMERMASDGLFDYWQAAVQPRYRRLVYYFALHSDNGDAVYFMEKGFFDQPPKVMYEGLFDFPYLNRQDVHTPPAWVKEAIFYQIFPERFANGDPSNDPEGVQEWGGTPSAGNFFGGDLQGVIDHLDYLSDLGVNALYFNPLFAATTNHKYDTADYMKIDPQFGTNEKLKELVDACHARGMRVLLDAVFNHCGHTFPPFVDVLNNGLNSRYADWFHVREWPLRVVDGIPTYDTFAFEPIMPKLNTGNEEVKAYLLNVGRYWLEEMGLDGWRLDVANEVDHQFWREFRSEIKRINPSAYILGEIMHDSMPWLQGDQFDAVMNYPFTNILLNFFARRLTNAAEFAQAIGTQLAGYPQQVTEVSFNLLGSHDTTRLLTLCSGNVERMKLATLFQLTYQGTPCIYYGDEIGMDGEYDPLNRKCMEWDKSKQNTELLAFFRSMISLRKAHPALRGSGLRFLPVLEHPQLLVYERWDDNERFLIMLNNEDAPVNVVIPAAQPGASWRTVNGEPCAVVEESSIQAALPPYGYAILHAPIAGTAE
Description: (§1) When the amount of the enzyme was small, the reducing power of the enzyme was determined according to Nelson-Somogyi's method, with glucose as standard.

cyclodextrinase [2] = target: T1, cyclodextrinase; experiment: Reaction rate parameters of the present enzyme for cyclodextrins and maltooligosaccharides; format: biochemical, Bacillus sphaericus; design: Vmax: unit not given here; conditions: for Relative value: Vmax/Km relative to β-cyclodextrin = 1.00
Description: as §1

cyclodextrinase [3] = target: T1, cyclodextrinase; experiment: Substrate specificity of the present cyclodextrinase (relative hydrolysis rate); format: biochemical, Bacillus sphaericus
Description: as §1

cyclodextrinase [4] = conditions: Bacillus coagulans enzyme, prior literature; cited from earlier work
cyclodextrinase [5] = conditions: Bacillus macerans enzyme, prior literature; cited from earlier work
[6] = substrate conc. 2 mM, β-cyclodextrin = 100
[7] = substrate conc. 0.1%, β-cyclodextrin (2 mM) = 100

Molecule	Residual activity (cyclodextrinase [1]) [%]	Vmax (cyclodextrinase [2])	Relative value (cyclodextrinase [2])	other results
[Ca+2] [Ca^2+]	138.2	–	–	activation of the enzyme by metal ion (cyclodextrinase [1]): 10-30%
[Cu+2] [Cu^2+]	2.8	–	–	–
[Fe+3] [Fe^3+]	41.6	–	–	Residual activity (cyclodextrinase [1]; listed as Fe^2+): 4.6%
[Hg+2] [Hg^2+]	0.0	–	–	–
OC[C@H]1O[C@H](O[C@H]2[C@H](O)[C@@H](O)[C@@H](O[C@H]3[C@H](O)[C@@H](O)[C@@H](O[C@H]4[C@H](O)[C@@H](O)[C@@H](O[C@H]5[C@H](O)[C@@H](O)[C@@H](O[C@H]6[C@H](O)[C@@H](O)[C@@H](O[C@H]7[C@H](O)[C@@H](O)C(O)O[C@@H]7CO)O[C@@H]6CO)O[C@@H]5CO)O[C@@H]4CO)O[C@@H]3CO)O[C@@H]2CO)[C@H](O)[C@@H](O)[C@@H]1O (some centres unmarked) [Maltoheptaose]	–	0.060	0.30	Relative hydrolysis rate (cyclodextrinase [3]; [6]): 66%
OC[C@H]1O[C@H](O[C@H]2[C@H](O)[C@@H](O)[C@@H](O[C@H]3[C@H](O)[C@@H](O)[C@@H](O[C@H]4[C@H](O)[C@@H](O)[C@@H](O[C@H]5[C@H](O)[C@@H](O)[C@@H](O[C@H]6[C@H](O)[C@@H](O)C(O)O[C@@H]6CO)O[C@@H]5CO)O[C@@H]4CO)O[C@@H]3CO)O[C@@H]2CO)[C@H](O)[C@@H](O)[C@@H]1O (some centres unmarked) [Maltohexaose]	–	0.075	0.23	Km (cyclodextrinase [4]): 1500 µM; Relative hydrolysis rate (cyclodextrinase [3]; [6]): 43%
OC[C@H]1O[C@H](O[C@H]2[C@H](O)[C@@H](O)[C@@H](O[C@H]3[C@H](O)[C@@H](O)[C@@H](O[C@H]4[C@H](O)[C@@H](O)[C@@H](O[C@H]5[C@H](O)[C@@H](O)C(O)O[C@@H]5CO)O[C@@H]4CO)O[C@@H]3CO)O[C@@H]2CO)[C@H](O)[C@@H](O)[C@@H]1O (some centres unmarked) [Maltopentaose]	–	0.073	0.27	Relative hydrolysis rate (cyclodextrinase [3]; [6]): 49%
OC[C@H]1O[C@H](O[C@H]2[C@H](O)[C@@H](O)[C@@H](O[C@H]3[C@H](O)[C@@H](O)[C@@H](O[C@H]4[C@H](O)[C@@H](O)C(O)O[C@@H]4CO)O[C@@H]3CO)O[C@@H]2CO)[C@H](O)[C@@H](O)[C@@H]1O (some centres unmarked) [Maltotetraose]	–	0.067	0.15	–
[Mg+2] [Mg^2+]	111.3	–	–	activation of the enzyme by metal ion (cyclodextrinase [1]): 10-30%
[Mn+2] [Mn^2+]	59.3	–	–	–
[Ni+2] [Ni^2+]	0.9	–	–	–
[Zn+2] [Zn^2+]	0.0	–	–	–
OC[C@H]1O[C@@H]2O[C@H]3[C@H](O)[C@@H](O)[C@@H](O[C@H]4[C@H](O)[C@@H](O)[C@@H](O[C@H]5[C@H](O)[C@@H](O)[C@@H](O[C@H]6[C@H](O)[C@@H](O)[C@@H](O[C@H]7[C@H](O)[C@@H](O)[C@@H](O[C@H]1[C@H](O)[C@H]2O)O[C@@H]7CO)O[C@@H]6CO)O[C@@H]5CO)O[C@@H]4CO)O[C@@H]3CO [α-cyclodextrin]	–	0.074	0.36	Km (cyclodextrinase [5]): 2620 µM; Km (cyclodextrinase [4]): 10000 µM; Relative hydrolysis rate (cyclodextrinase [3]; [6]): 44%
OC[C@H]1O[C@@H]2O[C@H]3[C@H](O)[C@@H](O)[C@@H](O[C@H]4[C@H](O)[C@@H](O)[C@@H](O[C@H]5[C@H](O)[C@@H](O)[C@@H](O[C@H]6[C@H](O)[C@@H](O)[C@@H](O[C@H]7[C@H](O)[C@@H](O)[C@@H](O[C@H]8[C@H](O)[C@@H](O)[C@@H](O[C@H]1[C@H](O)[C@H]2O)O[C@@H]8CO)O[C@@H]7CO)O[C@@H]6CO)O[C@@H]5CO)O[C@@H]4CO)O[C@@H]3CO [β-cyclodextrin]	–	0.110	1.00	Km (cyclodextrinase [5]): 2650 µM; Km (cyclodextrinase [4]): 2800 µM; Relative hydrolysis rate (cyclodextrinase [3]; [6]): 100%
OC[C@H]1O[C@@H]2O[C@H]3[C@H](O)[C@@H](O)[C@@H](O[C@H]4[C@H](O)[C@@H](O)[C@@H](O[C@H]5[C@H](O)[C@@H](O)[C@@H](O[C@H]6[C@H](O)[C@@H](O)[C@@H](O[C@H]7[C@H](O)[C@@H](O)[C@@H](O[C@H]8[C@H](O)[C@@H](O)[C@@H](O[C@H]9[C@H](O)[C@@H](O)[C@@H](O[C@H]1[C@H](O)[C@H]2O)O[C@@H]9CO)O[C@@H]8CO)O[C@@H]7CO)O[C@@H]6CO)O[C@@H]5CO)O[C@@H]4CO)O[C@@H]3CO [γ-cyclodextrin]	–	0.039	0.09	–
Amylopectin	–	–	–	Relative hydrolysis rate (cyclodextrinase [3]; [7]): 0.7%
Amylose [Amylose (G18)]	–	–	–	Relative hydrolysis rate (cyclodextrinase [3]; [7]): 44%
Amylose [Amylose (G99)]	–	–	–	Relative hydrolysis rate (cyclodextrinase [3]; [7]): 3.7%
Dextran	–	–	–	Relative hydrolysis rate (cyclodextrinase [3]; [7]): 11%
Pullulan	–	–	–	Relative hydrolysis rate (cyclodextrinase [3]; [7]): 1.5%
Starch	–	–	–	Relative hydrolysis rate (cyclodextrinase [3]; [7]): 2.9%

Source: US5238825A, “Preparation and use of a cyclodextrinase for preparing maltooligosaccharides” (Kikkoman Corporation, priority 1989, dated 1993)
